Experimental data reported in patent US8598374B2, “GPR120 receptor agonists and uses thereof” (Metabolex, Inc, priority 2008, dated 2013).

Legend:
[1] = tested on: C57BL/6J mice; assay: Oral glucose tolerance test; format: in vivo; conditions: Table 2; 100 mg/kg oral gavage, 3 g/kg oral glucose, mice fasted 6 hours
Method: 8-10 week old male C57BL/6J mice (Harlan) were maintained on regular chow diet from Harlan (2018 Teklad Global). On the day of the experiment mice were fasted for 6 hours, then randomized into groups (n=10-15) to receive the tested GPR120 agonist at doses ranging from 100 mg/kg or the vehicle (1% CMC, 2% TWEEN 80). Compounds were delivered orally via gavage at 10 mL/kg. Blood glucose levels were measured by glucometer (Ascensia Elite XL, Bayer) at time −30 minutes before administration of compound. Blood glucose was measured again after 30 minutes (at time 0), and then the mice were dosed orally with 3 g/kg glucose at 10 mL/kg. […]
Glucose levels were plotted against time, and the incremental area under the curve (AUC) of the glucose excursion was determined from time 0 using Graphpad Prism 5.01. Outliers were excluded using Tukey's box plot outlier test, and statistical significance of differences in AUC of compound treatment compared to vehicle was determined by non-parametric Kruskal-Wallis test with Dunn's post test.
Tables 2 and 3 below show the mean percentage inhibition of the glucose excursion for the fifteen animals tested in each group. The compounds were tested at 100 mg/kg and the levels of blood glucose were determined in the presence and absence of the tested compounds. […]

[2] = molecular target: T1, human GPR120 (Homo sapiens, UniProt Q5NUL3); assay: Intracellular Ca2+ assay (FLIPR Calcium 4, Flexstation) in human GPR120 stable cell line; format: cell-based; conditions: % activity at 5 μM compared to the maximal activity of GW9508 at 6.7 μM; HEK293 cells co-expressing Gqi5
T1 construct: Flag (DYKDDDDK) (N); host or cells: HEK293 cells co-expressing Gqi5
T1 sequence (Q5NUL3 1-361): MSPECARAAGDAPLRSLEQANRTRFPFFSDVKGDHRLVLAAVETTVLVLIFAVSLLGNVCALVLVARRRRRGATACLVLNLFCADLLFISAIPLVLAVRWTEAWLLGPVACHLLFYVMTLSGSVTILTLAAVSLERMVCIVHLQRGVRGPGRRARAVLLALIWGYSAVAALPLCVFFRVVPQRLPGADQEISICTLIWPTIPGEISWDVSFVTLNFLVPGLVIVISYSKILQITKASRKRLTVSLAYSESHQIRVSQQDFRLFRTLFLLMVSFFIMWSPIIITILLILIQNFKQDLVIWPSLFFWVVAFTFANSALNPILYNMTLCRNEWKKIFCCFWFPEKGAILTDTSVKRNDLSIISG

[3] = molecular target: T1, human GPR120; assay: as above; format: cell-based; conditions: for % Activity (Ex. 25 Reference Compound): % activity at 2.5 μM compared to the maximal activity of the compound of Example 25 at 2.5 μM, HEK293 cells co-expressing Gqi5; for EC50: human GPR120 stably expressing cells, eight concentrations from 0.00001 to 20 μM
Outline: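 HEK293 cells co-expressing Gqi5 and stably expressing Flag-tagged human GPR120 were seeded at 70,000 cells per well in poly-D-lysine coated 96 well plates and loaded with FLIPR Calcium 4 dye for 50 minutes at 37° C. On a Flexstation, compound-induced fluorescence (excitation 485 nm, emission 525) was recorded for 90 seconds. Percent activity was expressed against a reference agonist's maximal activity at 2.5 μM, set as 100%.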

Structure (SMILES)	% Activity (Ex. 25 Reference Compound) [3] [%]	EC50 [3] [µM]	also measured
CC(Cc1ccc(OCc2cc(Cl)cc3c2OC(C)(C)C3)c(F)c1)C(=O)O (centres unmarked) [Example 10, 3-(4-((5-chloro-2,2-dimethyl-2,3-dihydrobenzofuran-7-yl)methoxy)-3-fluorophenyl)-2-methylpropanoic acid]			% reduction AUC glucose excursion at 100 mg/kg [1]: 58.1%
CC(Cc1ccc(OCc2cccc3c2CC(C)(C)O3)cc1)C(=O)O (centres unmarked) [Example 17, 3-(4-((2,2-dimethyl-2,3-dihydrobenzofuran-4-yl)methoxy)phenyl)-2-methylpropanoic acid]			% Activity (GW9508 Reference Compound) [2]: 72.21%
CC(Cc1ccc(OCc2cc(Cl)cc3c2OC(C)(C)C3=O)c(C(F)(F)F)c1)C(=O)O (centres unmarked) [Example 79, 3-(4-((5-chloro-2,2-dimethyl-3-oxo-2,3-dihydrobenzofuran-7-yl)methoxy)-3-(trifluoromethyl)phenyl)-2-methylpropanoic acid]	3.85		
Cc1cc2c(OCc3cc(F)cc4c3OC(C)(C)C4)ccc(CCC(=O)O)c2o1 [Example 125, 3-(4-((5-fluoro-2,2-dimethyl-2,3-dihydrobenzofuran-7-yl)methoxy)-2-methylbenzofuran-7-yl)propanoic acid]	32.57	1 to 10	
CC(Cc1ccc(OCc2cc(-c3cccc(C(F)(F)F)c3)cc3c2OC(C)(C)C3)cc1)C(=O)O (centres unmarked) [Example 87, 3-(4-((2,2-dimethyl-5-(3-(trifluoromethyl)phenyl)-2,3-dihydrobenzofuran-7-yl)methoxy)phenyl)-2-methylpropanoic acid]		1 to 10	
CC1(C)Cc2cc(Cl)cc(COc3ccc(CCC(=O)O)c4c3CCC4)c2O1 [Example 64, 3-(7-((5-chloro-2,2-dimethyl-2,3-dihydrobenzofuran-7-yl)methoxy)-2,3-dihydro-1H-inden-4-yl)propanoic acid]		1 to 10	
CC(C)Oc1ccc(Cl)cc1COc1cc2c(cc1F)C(CC(=O)O)CC2 (centres unmarked) [Example 257, 2-(5-((5-chloro-2-isopropoxybenzyl)oxy)-6-fluoro-2,3-dihydro-1H-inden-1-yl)acetic acid]	124.62		
